According to article PMC8086144, “A novel peptide antagonist of the human growth hormone receptor” (The Journal of Biological Chemistry, 2021):

What was measured:
[1] = molecular target: T1, hGHR (Homo sapiens, UniProt P10912); assay: hGH-mediated pSTAT5 in SK-MEL-28 cells, ELISA; type: cell-based; conditions: ELISA (pSTAT5A Y694/pSTAT5B Y699), SK-MEL-28 cells co-treated with hGH and 200 nM peptide, Equation 2, triplicate; for inhibition at 0.2 µM: SK-MEL-28, 20 min; for % pSTAT5 inhibition: 20 min
T1 construct: previously reported to express high levels of endogenous hGHR; host or cells: SK-MEL-28, MALME-3M, IM9
T1 sequence (P10912 19-638): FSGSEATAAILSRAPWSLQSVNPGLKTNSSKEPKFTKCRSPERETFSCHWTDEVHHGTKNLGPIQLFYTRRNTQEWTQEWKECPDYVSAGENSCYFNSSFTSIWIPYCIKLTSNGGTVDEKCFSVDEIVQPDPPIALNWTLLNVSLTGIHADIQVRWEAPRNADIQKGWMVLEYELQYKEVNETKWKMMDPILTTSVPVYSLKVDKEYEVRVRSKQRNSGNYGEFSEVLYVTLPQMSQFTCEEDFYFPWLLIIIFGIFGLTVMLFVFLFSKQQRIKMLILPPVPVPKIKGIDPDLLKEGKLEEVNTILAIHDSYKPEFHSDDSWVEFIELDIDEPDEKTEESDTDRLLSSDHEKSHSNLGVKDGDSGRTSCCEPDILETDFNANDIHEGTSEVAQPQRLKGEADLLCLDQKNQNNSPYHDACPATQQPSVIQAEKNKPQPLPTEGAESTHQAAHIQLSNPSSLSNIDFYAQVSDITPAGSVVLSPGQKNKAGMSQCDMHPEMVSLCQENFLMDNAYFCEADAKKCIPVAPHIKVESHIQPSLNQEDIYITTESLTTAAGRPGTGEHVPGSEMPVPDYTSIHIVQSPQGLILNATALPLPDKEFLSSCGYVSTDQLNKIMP
Method: SK-MEL-28, MALME-3M, and T84 cells were grown and maintained in Eagle's Minimal Essential Medium. IM9 and L cells were grown in RPMI-1640 media and Dulbecco's modified Eagle's medium, respectively. All growth media was supplemented with 10% fetal bovine serum and 1× antibiotic-antimycotic […] solution. Cells were grown at 37 °C under a 5% CO2 atmosphere in a humidified incubator, and growth media was replaced every 48 h during incubation. No hGH was present in or added to the growth media unless specifically indicated. Between 12 to 16 h after seeding, adherent cells (SK-MEL-28, MALME-3M, T84, L cells) were switched to serum-free growth media (no GH) and starved for 4 h before the addition of hGH, bGH (L cells), hPRL (MALME-3M and T84 cells), or buffer at the concentrations noted. Cells were then allowed to incubate for an additional 20 min before being harvested. For suspended cell treatments, IM9 cells were pelleted by centrifugation at 140g for 5 min at room temperature. The supernatant was then removed by aspiration, and the cells were resuspended in serum-free media. The cells were then starved for 4 h at 37 °C under a 5% CO2 atmosphere in a humidified incubator and subsequently treated with hGH, S1H, or both at the indicated concentrations for 20 min before harvesting by centrifugation.
Following treatment, the cells were harvested at the indicated time points, and the total protein was extracted. To affect protein extraction, the treatment media was removed by aspiration, and the cells were washed twice with ice-cold PBS. Following washing, total protein was extracted from the cells using RIPA buffer (100 μl/million cells) supplemented with 1.5× Halt protease and phosphatase inhibitor cocktail. Briefly, chilled RIPA buffer was added to the cells, and the lysis reaction was allowed to incubate for 5 min at 4 °C. Adherent cells were harvested for lysis using a sterile cell scraper. The resultant cell suspensions were sonicated on ice for 60 s with ON (2-s)/OFF (1-s) pulses at 2% power. The cell lysate was then cleared by centrifugation at 8000g for 10 min at 4 °C. Following centrifugation, the supernatant was collected and stored at −80 °C until further use. Sample protein concentration was quantified using a Bradford assay with bovine serum albumin as the protein standard. Absorbance at 595 nm was measured using a Spectramax 250 multimode plate reader (Molecular Devices) and processed using SoftmaxPro v4.7.1 software.
Intracellular pSTAT5A (Y694) and pSTAT5B (Y699) levels were quantified from clarified protein samples using an InstantOne ELISA kit (Thermo Fisher) according to the manufacturer’s instructions. Briefly, 50 μl of protein sample (1 mg/ml) were added to wells containing 50 μl antibody cocktail in a 96-well plate and incubated at room temperature for 2 h with shaking (300 rpm). Following incubation, the wells were washed, and the bound antibodies were detected by adding detection regent and incubating the plate for 1 h at room temperature with shaking (300 rpm). Following incubation, stop reagent was added, and the absorbance was read at 450 nm using a UV-VIS spectrophotometer (Molecular Devices, model M2). All experiments were performed in triplicate. Percent pSTAT5 inhibition was calculated from background-subtracted pSTAT5 levels using Equation 2:(2) %inhibition=100×(pSTAT5hGH−pSTAT5PI)/pSTAT5hGH where pSTAT5hGH is the fold-induction of pSTAT5 upon treatment with hGH alone and pSTAT5PI is the fold-induction of pSTAT5 upon co-treatment with hGH and peptide inhibitor.

[2] = Wavelength-dependent CD spectropolarimetry (helical propensity); type: physicochemical; conditions: 25 °C; for % α-helix + TFE / % α-helix - TFE: calculated from MRE at 222 nm (Equation 1); for % α-helix + TFE / [θ]222 + TFE (mean residue ellipticity at 222 nm): 20 μM peptide in PBS with 30% (v/v) TFE; for % α-helix - TFE / [θ]222 - TFE (mean residue ellipticity at 222 nm): 20 μM peptide in PBS, no TFE; for [θ]222 + TFE (mean residue ellipticity at 222 nm) / [θ]222 - TFE (mean residue ellipticity at 222 nm): far-UV CD, background-subtracted average of four scans, in deg·cm2/dmol (unit assumed)
Method: The solution-phase structure of each peptide was evaluated by wavelength-dependent CD spectropolarimetry. For analysis, stock peptides were diluted to a final concentration of 20 μM in PBS supplemented with or without 30% (v/v) TFE. All peptide solutions were allowed to equilibrate for 10 min at 25 °C before analysis. Far-UV wavelength scans were performed on a Jasco J-715 CD spectropolarimeter from 255 nm to 195 nm at 25 °C. Final spectra were generated from a background subtracted (buffer only) average of four scans. Data were processed using J-700 Software v1.5 (Jasco) and KaleidaGraph v4.5. Percent helicity was calculated from the mean residue ellipticity at 222 nm using Equation 1:(1) %helical content=100×([θ]222/(−39,000(1−2.57/n))) where [θ]222 is the mean residue ellipticity at 222 nm and n is the total number of peptide bonds ([86]).

[3] = molecular target: T2, trypsin (bovine pancreas) (Bos taurus, UniProt P00760); assay: Trypsin degradation of hGH and pegvisomant (HPLC and Western blot); type: in vitro ADME; conditions: 4 μg/ml trypsin in digestion buffer pH 7.8, 37 °C, up to 8 h, 25 μg/ml protein
T2 construct: purchased Sigma-Aldrich; host or cells: bovine pancreas
T2 sequence (P00760 24-246): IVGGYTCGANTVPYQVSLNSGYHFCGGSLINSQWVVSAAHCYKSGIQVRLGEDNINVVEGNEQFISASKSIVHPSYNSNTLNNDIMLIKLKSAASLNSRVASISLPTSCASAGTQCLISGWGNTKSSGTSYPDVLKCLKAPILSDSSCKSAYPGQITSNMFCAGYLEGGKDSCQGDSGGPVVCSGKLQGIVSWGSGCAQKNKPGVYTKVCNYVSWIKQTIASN
Method: (§1) The samples were then incubated at 95 °C for 5 min before being cooled on ice and stored at −80 °C. […] Following separation, the proteins were transferred to polyvinylidine difluoride membranes and subjected to Western blot analysis (vide infra). The fraction of intact protein was quantified by measuring the integrated density of each band contained within regions of the gel corresponding to “intact” or “degraded” proteins. […] These reactions were allowed to incubate at 37 °C for up to 8 h, with samples removed at selected timepoints for analysis. Following incubation, the samples were either mixed with 5× Laemmli loading buffer and subjected to SDS-PAGE for Western blot analysis (Fig. S5) or directly injected onto a C18 reversed-phase column for analysis by HPLC as described above for the S1H peptide (Fig. S4).

[4] = Stability of hGH and pegvisomant in human serum (Western blot); type: in vitro ADME; conditions: RPMI with 25% (v/v) heat-inactivated human AB serum, 37 °C, 25 μg/ml protein, SDS-PAGE/Western blot densitometry, average of three experiments
Method: as §1

| inhibition at 0.2 µM [1] [%] | % α-helix + TFE [2] [%] | % α-helix - TFE [2] [%] | [θ]222 + TFE (mean residue ellipticity at 222 nm) [2] | [θ]222 - TFE (mean residue ellipticity at 222 nm) [2] | Substance | % pSTAT5 inhibition [1] | time to full degradation by trypsin [3] [h] | protein remaining intact after 48 h in human serum [4] [%] |
| --- | --- | --- | --- | --- | --- | --- | --- | --- |
| 88.5 |  |  |  |  | Ac-YIPAEQKYSFLQNPQT-NH2 [S1H (K39A)] |  |  |  |
| 33.4 |  |  |  |  | Ac-YIPKAQKYSFLQNPQT-NH2 [S1H (E40A)] |  |  |  |
| 37.4 | 25.4 | 8.3 | -8,400 | -2,700 | Ac-YIPKEAKYSFLQNPQT-NH2 [S1H (Q41A)] | reduced inhibitory effects compared with WT S1H |  |  |
| 51.7 | 24.4 | 2.4 | -8,100 | -800 | Ac-YIPKEQAYSFLQNPQT-NH2 [S1H (K42A)] | reduced inhibitory effects compared with WT S1H |  |  |
| 66.6 | 68.8 | 11.2 | -22,800 | -3,700 | Ac-YIPKEQKASFLQNPQT-NH2 [S1H (Y43A)] | comparable to WT S1H |  |  |
| 72.3 | 63.5 | 15.7 | -21,100 | -5,200 | Ac-YIPKEQKYAFLQNPQT-NH2 [S1H (S44A)] | comparable to WT S1H |  |  |
| 52.5 | 21.4 | 11.1 | -7,100 | -3,700 | Ac-YIPKEQKYSALQNPQT-NH2 [S1H (F45A)] | reduced inhibitory effects compared with WT S1H |  |  |
| 75.1 |  | 7.0 |  | -2,300 | Ac-YIPKEQKYSFAQNPQT-NH2 [S1H (L46A)] | comparable to WT S1H |  |  |
| 30.1 | 86.3 | 8.2 |  | -2,700 | Ac-YIPKEQKYSFLANPQT-NH2 [S1H (Q47A)] |  |  |  |
| 89.1 | 12.2 | 6.7 | -4,100 | -2,200 | Ac-YIPKEQKYSFLQAPQT-NH2 [S1H (N48A)] |  |  |  |
|  |  |  |  |  | hGH: recombinant human growth hormone, 191-amino acid peptide hormone (22 kDa) |  | 8 | > 92 |
